These results are taken from ChEMBL document CHEMBL4680169, “Synthesis and bioevaluation of new vascular-targeting and anti-angiogenic thieno[2,3-d]pyrimidin-4(3H)-ones” (Eur J Med Chem, 2020).

The source made the active and inactive calls. No cut-off for these calls is given here.

Assay [1] is filed under the species Danio rerio. Briefly: Antiangiogenic activity in zebrafish embryo assessed as reduction in tube formation at 500 nM incubated for 48 hrs by fluorescence microscopic analysis. Format: functional. Details: scale not given: the % may be the effect or the level left.
In assay [2] the target is T1, Tubulin (Homo sapiens) (UniProt P68371+Q9H4B7+P0DPH7+P68366+Q13509+Q71U36+P04350+Q3ZCM7+P07437+P68363+Q9BQE3+Q6PEY2+Q13885+Q9BVA1+Q9BUF5). Briefly: Induction of microtubule cytoskeleton disruption in human EA.hy926 cells at 25 nM measured after 24 hrs by DAPI staining based fluorescence microscopic analysis. Format: cell-based. To be noted: EA.hy 926.
A short description of assay [3]: cells. Format: ADME, cell-based. Conditions: Homo sapiens, HDFa, 72 h.
Description: Cytotoxicity against human HDfa cells assessed as inhibition of cell growth after 72 hrs by MTT assay
The test system of assay [4] is KB-V1. Nature of the assay: cells. Conditions: Homo sapiens, KB-V1, 72 h. Type of assay: functional, cell-based.
Description: Cytotoxicity against multidrug resistant human KB-V1 cells assessed as inhibition of cell growth after 72 hrs by MTT assay
Assay [5] relates to EA.hy 926. Nature of the assay: cells. Format: functional, cell-based. Conditions: Homo sapiens, EA.hy 926, 72 h.
Description: Cytotoxicity against human EA.hy 926 cells assessed as inhibition of cell growth after 72 hrs by MTT assay
For assay [6], the system named is EA.hy 926. Briefly: Cell cycle arrest in human EA.hy926 cells assessed as accumulation at G2/M phase at 25 to 70 uM after 24 hrs by propidium iodide staining based flow cytometric analysis. Format: functional. Conditions: dose 25-70 µM. For orientation: Flow cytometry measures light scatter and fluorescence of single cells or particles in a stream.
In assay [7] the test system is 518A2. Briefly: cells. To be noted: Homo sapiens, 518A2, 72 h. Format: functional, cell-based.
Description: Cytotoxicity against human 518A2 cells assessed as inhibition of cell growth after 72 hrs by MTT assay
The subject of assay [8] is EA.hy 926. Briefly: Antiangiogenic activity in human EA.hy926 cells assessed as reduction in tube formation at 150 nM incubated for 6 hrs by matrigel-based MTT assay. Format: functional, cell-based. Background: Formazan colour is commonly taken as a measure of viable cells.
Assay [9] deals with EA.hy 926. Nature of the assay: Induction of F-actin cytoskeleton disruption in human EA.hy926 cells at 50 nM assessed as formation of actin stress fibers measured after 3 hrs by DAPI staining based fluorescence microscopic analysis. Type of assay: cell-based.
Assay [10] has as its target T1, Tubulin (Homo sapiens). Briefly: Induction of microtubule cytoskeleton disruption in human EA.hy926 cells at 50 nM assessed as mitotic catastrophe measured after 24 hrs by DAPI staining based fluorescence microscopic analysis. Format: cell-based. To be noted: EA.hy 926.
Assay [11] deals with HCT-116. Briefly: cells. Format: functional, cell-based. To be noted: Homo sapiens, HCT-116, 72 h.
Description: Cytotoxicity against human HCT-116 p53 mutant cells assessed as inhibition of cell growth after 72 hrs by MTT assay
The target in assay [12] is CDK1/Cyclin A (Homo sapiens) (UniProt P06493+P20248). Briefly: Inhibition of full length recombinant human CDK1/cyclin A2 expressed in baculovirus infected sf9 cells using histone H1 as substrate incubated for 15 mins in presence of ATP by ADP-Glo assay. For orientation: ADP-Glo first removes unused ATP, then detects ADP through luciferase.
The subject of assay [13] is EA.hy 926. Briefly: Vascular disruptive effect in human EA.hy926 cells at 250 nM incubated for 12 hrs by matrigel-based MTT assay. Type of assay: functional, cell-based.
Assay [14] has as its system HCT-116. Nature of the assay: cells. Type of assay: functional, cell-based. Conditions: Homo sapiens, HCT-116, 72 h. The source holds these as a separate data set.
Description: Cytotoxicity against wild type human HCT-116 cells assessed as inhibition of cell growth after 72 hrs by MTT assay
Assay [15] concerns EA.hy 926. Briefly: Cell cycle arrest in human EA.hy926 cells assessed as accumulation at sub-G1 phase after 24 hrs by propidium iodide staining based flow cytometric analysis. Type of assay: functional.
Assay [16] has as its system Chorioallantoic membrane. Briefly: Vascular disruptive effect in chicken fertilized egg chorioallantoic membrane at 15 nmol incubated for 6 hrs by CAM assay. To be noted: Gallus gallus. Type of assay: functional, tissue-based.
The species entered for assay [17] is Danio rerio. Nature of the assay: Antiangiogenic activity in zebrafish embryo assessed as reduction in SIV at 250 nM incubated for 48 hrs by fluorescence microscopic analysis. Details: scale not given: the % may be the effect or the level left. Format: functional.
The species entered for assay [18] is Sus scrofa. Nature of the assay: Inhibition of porcine brain tubulin polymerization at 10 uM measured at 20 sec interval for 2 hrs by turbidometric method.
The subject of assay [19] is Chorioallantoic membrane. Briefly: Antiangiogenic activity in chicken fertilized egg chorioallantoic membrane assessed as reduction in tube formation at 5 nmol incubated for 6 to 24 hrs by CAM assay. Format: functional, tissue-based. Conditions: Gallus gallus, time 6-24 hrs.
Assay [20] relates to Chorioallantoic membrane. Briefly: Vascular disruptive effect in chicken fertilized egg chorioallantoic membrane at 5 nmol incubated for 24 hrs by CAM assay. To be noted: Gallus gallus. Type of assay: functional, tissue-based.
The subject of assay [21] is Chorioallantoic membrane. Nature of the assay: Vascular disruptive effect in chicken fertilized egg chorioallantoic membrane at 15 nmol incubated for 24 hrs by CAM assay. Type of assay: functional, tissue-based. Conditions: Gallus gallus.

CDK1/Cyclin A (Homo sapiens), sequence (P06493 whole entry, looked up): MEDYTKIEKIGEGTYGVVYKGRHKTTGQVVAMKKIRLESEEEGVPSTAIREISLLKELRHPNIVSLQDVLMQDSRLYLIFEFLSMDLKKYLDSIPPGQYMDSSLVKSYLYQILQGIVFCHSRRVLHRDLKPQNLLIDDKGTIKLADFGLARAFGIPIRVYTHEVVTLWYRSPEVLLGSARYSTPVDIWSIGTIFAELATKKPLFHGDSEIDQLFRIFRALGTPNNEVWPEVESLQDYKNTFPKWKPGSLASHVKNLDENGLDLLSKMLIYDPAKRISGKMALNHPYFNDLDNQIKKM
CDK1/Cyclin A (Homo sapiens), sequence (P20248 whole entry, looked up): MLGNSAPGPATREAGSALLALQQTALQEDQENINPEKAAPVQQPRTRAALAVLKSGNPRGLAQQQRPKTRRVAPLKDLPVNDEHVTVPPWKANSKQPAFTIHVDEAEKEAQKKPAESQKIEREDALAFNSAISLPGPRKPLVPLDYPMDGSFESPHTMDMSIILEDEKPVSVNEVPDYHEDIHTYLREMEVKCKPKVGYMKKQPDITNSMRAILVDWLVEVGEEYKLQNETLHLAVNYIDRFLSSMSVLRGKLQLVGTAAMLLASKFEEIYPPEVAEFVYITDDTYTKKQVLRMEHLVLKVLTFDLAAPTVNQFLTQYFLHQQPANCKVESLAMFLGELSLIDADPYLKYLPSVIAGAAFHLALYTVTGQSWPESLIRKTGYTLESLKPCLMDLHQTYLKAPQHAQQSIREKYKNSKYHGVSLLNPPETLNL

What is called IC50 is the concentration that inhibits the measured activity by half. Take `COc1cc(-c2nc3sc4c(c3c(=O)[nH]2)CCCC4)cc(I)c1OC`: the Activity in [1] is 28%; in assay [15], “Dose-dependent effect”; in [17], 18%. In addition, in [2], the result was inactive. Moreover, the IC50 is above 100 µM in assay [3]; 100 nM in [4]; 200 nM in assay [5]; 100 nM in [7]; 100 nM in assay [11]; 200 nM in assay [14]. Further, the outcome in assay [6], in [8], in assay [9], in assay [10], in [13] and in [16] was Active. Also, the outcome in assay [19] was Active. For the same compound, the inhibition result in assay [12] and in [18] was “Active” in each case.
As to `COc1ccc(/C=C\c2cc(OC)c(OC)c(OC)c2)cc1O` [COMBRETASTATIN A4], the result in assay [2], in assay [20] and in assay [9] was Active. In addition, the IC50 was above 100 µM in [3]; 4 nM in assay [4]; 10 nM in assay [5]; 20 nM in [7]; 2 nM in [11]; 3 nM in [14]. In addition, the Activity entry in assay [15] was “Dose-dependent effect”.
As for `CCOC(=O)N1CCc2c(sc3nc(-c4cc(I)c(OC)c(OC)c4)[nH]c(=O)c23)C1`, the result in assay [2] and in assay [21] was inactive. The result in [20], in assay [6], in [8], in assay [9], in assay [10] and in [13] was Active. Besides, the outcome in assay [19] was Active. Also, the IC50 in [3] amounted to 13.1 µM; in [4] it was 100 nM; in assay [5] it was 100 nM; in assay [7], 100 nM; in [11], 100 nM; in [14] it was 300 nM. Further, the inhibition result in assay [12] and in assay [18] was “Active” throughout. Also, the Activity entry in assay [15] was “Dose-dependent effect”.
`COc1cc(-c2nc3sc4c(c3c(=O)[nH]2)CCNC4)cc(I)c1OC`: the half-inhibitory concentration (IC50) in [4] is 2500 nM; in [5], 1000 nM; in [7], 1400 nM; in assay [11] it was 800 nM; in assay [14], 1000 nM. Further, in assay [18], the inhibition result was “Active”.
Take `COc1cc(-c2nc3sc4c(c3c(=O)[nH]2)CCN(C(C)=O)C4)cc(I)c1OC`: the IC50 in assay [4] worked out at 600 nM; in assay [5], 100 nM; in [7] it was 300 nM; in assay [11], 400 nM; in assay [14] it was 200 nM. In addition, in [18], the inhibition entry was “Active”.
As to `COc1cc(-c2nc(O)c3c4c(sc3n2)CCCC4)cc(OC)c1OC`, the outcome in assay [2] and in assay [9] was inactive. The IC50 in [3] is above 100 µM; in assay [4], 200 nM; in assay [5], 400 nM; in assay [7] it was 200 nM; in assay [11] it was 300 nM; in assay [14], 5500 nM. The outcome in assay [10] was Active.
